Assay results taken from patent US10550105B2 (Ribon Therapeutics Inc., priority 2018, dated 2020).

molecular target: PARP7 (Homo sapiens (Human), UniProt Q7Z3E1); test: Enzymatic assay for inhibition of PARP7: TR-FRET displacement of biotinylated Probe A from the TIPARP active site; format: binding; conditions: Table A-1
Outline: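 Titrated compounds compete with the biotinylated probe; after an additional 30 min incubation at 25° C, time-delayed fluorescence (90 μs) is measured. Inhibition curves use a Hill coefficient that normally floats but may be held at 1.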

Chain of PARP7 (Q7Z3E1 whole entry): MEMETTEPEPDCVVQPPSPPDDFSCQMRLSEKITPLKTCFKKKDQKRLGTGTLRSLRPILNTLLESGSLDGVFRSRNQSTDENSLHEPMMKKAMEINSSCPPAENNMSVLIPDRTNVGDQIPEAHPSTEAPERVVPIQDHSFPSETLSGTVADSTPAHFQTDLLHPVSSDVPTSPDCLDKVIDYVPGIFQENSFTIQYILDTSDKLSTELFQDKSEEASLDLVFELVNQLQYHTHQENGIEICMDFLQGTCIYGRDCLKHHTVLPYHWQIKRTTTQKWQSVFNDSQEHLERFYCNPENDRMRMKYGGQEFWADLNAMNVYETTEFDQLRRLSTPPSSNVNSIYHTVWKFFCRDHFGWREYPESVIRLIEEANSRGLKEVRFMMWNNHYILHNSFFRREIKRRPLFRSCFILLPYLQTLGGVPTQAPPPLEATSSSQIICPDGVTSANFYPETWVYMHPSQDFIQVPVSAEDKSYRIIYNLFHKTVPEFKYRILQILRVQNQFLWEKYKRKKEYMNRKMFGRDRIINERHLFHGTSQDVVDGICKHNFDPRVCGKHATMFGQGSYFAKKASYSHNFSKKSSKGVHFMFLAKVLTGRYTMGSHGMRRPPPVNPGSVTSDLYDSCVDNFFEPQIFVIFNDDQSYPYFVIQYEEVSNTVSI

IC50 [nM]	Structure (SMILES)
< 100	O=C(CCOC[C@H](CO)Nc1cn[nH]c(=O)c1C(F)(F)F)N1CCN(c2ncc(C(F)(F)F)cn2)CC1 [Example 603, 5-[[(2S)-1-Hydroxy-3-(3-oxo-3-[4-[5-(trifluoromethyl)pyrimidin-2-yl]piperazin-1-yl]propoxy)propan-2-yl]amino]-4-(trifluoromethyl)-2,3-dihydropyridazin-3-one]
< 100	O=C(CCOC[C@H](CO)Nc1cn[nH]c(=O)c1C(F)(F)F)N1CCN(c2ccc(C(F)(F)F)cn2)CC1 [Example 604, 5-[[(2S)-1-Hydroxy-3-(3-oxo-3-[4-[5-(trifluoromethyl)pyridin-2-yl]piperazin-1-yl]propoxy)propan-2-yl]amino]-4-(trifluoromethyl)-2,3-dihydropyridazin-3-one]
< 100	N#Cc1ccc(N2CCN(C(=O)CCOC[C@@H](Nc3cn[nH]c(=O)c3C(F)(F)F)C3CC3)CC2)nc1 [Example 605, (S)-6-[4-[3-[2-Cyclopropyl-2-[[6-oxo-5-(trifluoromethyl)-1,6-dihydropyridazin-4-yl]amino]ethoxy]propanoyl]piperazin-1-yl]nicotinonitrile]
< 100	O=C(CCOC[C@@H](Nc1cn[nH]c(=O)c1C(F)(F)F)C1CC1)N1CCN(c2ncc(C(F)(F)F)cn2)CC1 [Example 606, (S)-5-[(1-Cyclopropyl-2-[3-oxo-3-[4-[5-(trifluoromethyl)pyrimidin-2-yl)piperazin-1-yl]propoxy]-ethyl]amino]-4-(trifluoromethyl)pyridazin-3(2H)-one]
< 100	C[C@@H](O)[C@@H](COCCC(=O)N1CCN(c2ncc(C(F)(F)F)cn2)CC1)Nc1cn[nH]c(=O)c1C(F)(F)F [Example 610, 5-[[(2R,3R)-3-Hydroxy-1-(3-oxo-3-[4-[5-(trifluoromethyl)pyrimidin-2-yl]piperazin-1-yl]propoxy)butan-2-yl]amino]-4-(trifluoromethyl)-2,3-dihydropyridazin-3-one]
< 100	C[C@H](O)[C@@H](COCCC(=O)N1CCN(c2ncc(C(F)(F)F)cn2)CC1)Nc1cn[nH]c(=O)c1C(F)(F)F [Example 611, 5-[[(2R,3S)-3-Hydroxy-1-(3-oxo-3-[4-[5-(trifluoromethyl)pyrimidin-2-yl]piperazin-1-yl]propoxy)butan-2-yl]amino]-4-(trifluoromethyl)-2,3-dihydropyridazin-3-one]
< 100	C[C@@H](COCCC(=O)N1CCN(c2cnc(C(F)(F)F)cn2)CC1)Nc1cn[nH]c(=O)c1C(F)(F)F [Example 613, (S)-5-((1-(3-Oxo-3-(4-(5-(trifluoromethyl)pyrazin-2-yl)piperazin-1-yl)propoxy)propan-2-yl)amino)-4-(trifluoromethyl)pyridazin-3(2H)-one]
< 100	O=C(CCOC[C@H](Nc1cn[nH]c(=O)c1C(F)(F)F)[C@@H]1CCOC1)N1CCN(c2ncc(C(F)(F)F)cn2)CC1 [Example 614 Isomer D, 5-(((R)-2-(3-Oxo-3-(4-(5-(trifluoromethyl)pyrimidin-2-yl)piperazin-1-yl)propoxy)-1-((S)-tetrahydrofuran-3-yl)ethyl)amino)-4-(trifluoromethyl)pyridazin-3(2H)-one]
100 to 1000	C[C@@H](CNCCC(=O)N1CCN(c2ncc(C(F)(F)F)cn2)CC1)Oc1cn[nH]c(=O)c1C(F)(F)F [Example 615, (S)-5-((1-((3-Oxo-3-(4-(5-(trifluoromethyl)pyrimidin-2-yl)piperazin-1-yl)propyl)amino)propan-2-yl)oxy)-4-(trifluoromethyl)pyridazin-3(2H)-one]
< 100	C[C@@H](COCCC(=O)N1CCN(c2ncc(C(F)(F)F)cn2)CC1)Sc1cn[nH]c(=O)c1C(F)(F)F [Example 618, (S)-5-((1-(3-Oxo-3-(4-(5-(trifluoromethyl)pyrimidin-2-yl)piperazin-1-yl)propoxy)propan-2-yl)thio)-4-(trifluoromethyl)pyridazin-3(2H)-one]
< 100	O=C(CCNC[C@@H]1c2ccccc2CN1c1cn[nH]c(=O)c1C(F)(F)F)N1CCN(c2ncc(Cl)cn2)CC1 [Example 627, (S)-5-(1-(((3-(4-(5-Chloropyrimidin-2-yl)piperazin-1-yl)-3-oxopropyl)amino)methyl)isoindolin-2-yl)-4-(trifluoromethyl)pyridazin-3(2H)-one]
≥ 1000	O=C(CCNC[C@H]1c2ccccc2CN1c1cn[nH]c(=O)c1C(F)(F)F)N1CCN(c2ncc(Cl)cn2)CC1 [Example 628, (R)-5-(1-(((3-(4-(5-Chloropyrimidin-2-yl)piperazin-1-yl)-3-oxopropyl)amino)methyl)isoindolin-2-yl)-4-(trifluoromethyl)pyridazin-3(2H)-one]
< 100	O=C(CCNC[C@@H]1c2ccccc2CN1c1cn[nH]c(=O)c1C(F)(F)F)N1CCN(c2ccc(C(F)(F)F)cn2)CC1 [Example 629, (S)-5-(1-(((3-Oxo-3-(4-(5-(trifluoromethyl)pyridin-2-yl)piperazin-1-yl)propyl)amino)methyl)isoindolin-2-yl)-4-(trifluoromethyl)pyridazin-3(2H)-one]
≥ 1000	O=C(CCNC[C@H]1c2ccccc2CN1c1cn[nH]c(=O)c1C(F)(F)F)N1CCN(c2ccc(C(F)(F)F)cn2)CC1 [Example 630, (R)-5-(1-(((3-Oxo-3-(4-(5-(trifluoromethyl)pyridin-2-yl)piperazin-1-yl)propyl)amino)methyl)isoindolin-2-yl)-4-(trifluoromethyl)pyridazin-3(2H)-one]

Continued, compound first:

Structure (SMILES)	IC50 [nM]
CO[C@H](C)[C@@H](COCCC(=O)N1CCN(c2ncc(C(F)(F)F)cn2)CC1)Nc1cn[nH]c(=O)c1C(F)(F)F [Example 607, 5-[[(2R,3R)-3-Methoxy-1-(3-oxo-3-[4-[5-(trifluoromethyl)pyrimidin-2-yl]piperazin-1-yl]propoxy)butan-2-yl]amino]-4-(trifluoromethyl)-2,3-dihydropyridazin-3-one]	< 100
C[C@@H](COCCC(=O)N1CCN(c2ncc(C(F)(F)F)cn2)CC1)Oc1cn[nH]c(=O)c1Br [Example 608, 4-Bromo-5-[[(2S)-1-(3-oxo-3-[4-[5-(trifluoromethyl)pyrimidin-2-yl]piperazin-1-yl]propoxy)propan-2-yl]oxy]-2,3-dihydropyridazin-3-one]	< 100
C[C@@H](COCCC(=O)N1CCN(c2ncc(Cl)cn2)CC1)Oc1cn[nH]c(=O)c1Br [Example 609, 4-Bromo-5-[[(2S)-1-[3-[4-(5-chloropyrimidin-2-yl)piperazin-1-yl]-3-oxopropoxy]propan-2-yl]oxy]-2,3-dihydropyridazin-3-one]	< 100
C[C@@H](CN(C)CCC(=O)N1CCN(c2ncc(C(F)(F)F)cn2)CC1)Oc1cn[nH]c(=O)c1C(F)(F)F [Example 616, (S)-5-((1-(Methyl(3-oxo-3-(4-(5-(trifluoromethyl)pyrimidin-2-yl)piperazin-1-yl)propyl)amino)propan-2-yl)oxy)-4-(trifluoromethyl)pyridazin-3(2H)-one]	< 100
C[C@@H](COCCS(=O)(=O)N1CCN(c2ncc(C(F)(F)F)cn2)CC1)Nc1cn[nH]c(=O)c1C(F)(F)F [Example 620, (S)-4-(Trifluoromethyl)-5-((1-(2-((4-(5-(trifluoromethyl)pyrimidin-2-yl)piperazin-1-yl)sulfonyl)ethoxy)propan-2-yl)amino)pyridazin-3(2H)-one]	< 100
C[C@@H](CSCCC(=O)N1CCN(c2ncc(C(F)(F)F)cn2)CC1)Oc1cn[nH]c(=O)c1C(F)(F)F [Example 621A, (S)-5-((1-((3-Oxo-3-(4-(5-(trifluoromethyl)pyrimidin-2-yl)piperazin-1-yl)propyl)thio)propan-2-yl)oxy)-4-(trifluoromethyl)pyridazin-3(2H)-one]	100 to 1000
C[C@H](CSCCC(=O)N1CCN(c2ncc(C(F)(F)F)cn2)CC1)Oc1cn[nH]c(=O)c1C(F)(F)F [Example 621B, (R)-5-((1-((3-Oxo-3-(4-(5-(trifluoromethyl)pyrimidin-2-yl)piperazin-1-yl)propyl)thio)propan-2-yl)oxy)-4-(trifluoromethyl)pyridazin-3(2H)-one]	< 100
C[C@@H](COCCC(=O)N1CCN(c2ncc(C(F)(F)F)s2)CC1)Nc1cn[nH]c(=O)c1C(F)(F)F [Example 622, (S)-5-((1-(3-Oxo-3-(4-(5-(trifluoromethyl)thiazol-2-yl)piperazin-1-yl)propoxy)propan-2-yl)amino)-4-(trifluoromethyl)pyridazin-3(2H)-one]	< 100
C[C@@H](COCCC(=O)N1CCN(c2ncc(C(C)(C)C)cn2)CC1)Nc1cn[nH]c(=O)c1C(F)(F)F [Example 623, (S)-5-((1-(3-(4-(5-(Tert-butyl)pyrimidin-2-yl)piperazin-1-yl)-3-oxopropoxy)propan-2-yl)amino)-4-(trifluoromethyl)pyridazin-3(2H)-one]	< 100
COC[C@@H](COCCS(=O)(=O)N1CCN(c2ncc(C(F)(F)F)cn2)CC1)Nc1cn[nH]c(=O)c1C(F)(F)F [Example 624, (S)-5-((1-Methoxy-3-(2-[(4-(5-(trifluoromethyl)pyrimidin-2-yl)piperazin-1-yl)sulfonyl)ethoxy)propan-2-yl)amino)-4-(trifluoromethyl)pyridazin-3(2H)-one]	< 100
C[C@@H](COCCS(=O)(=O)N1CCN(c2ncc(C(F)(F)F)s2)CC1)Oc1cn[nH]c(=O)c1C(F)(F)F [Example 625, (S)-4-(Trifluoromethyl)-5-((1-(2-[(4-(5-(trifluoromethyl)thiazol-2-yl)piperazin-1-yl)sulfonyl)ethoxy)propan-2-yl)oxy)pyridazin-3(2H)-one]	< 100
C[C@@H](COCC(O)CN1CCN(c2ncc(C(F)(F)F)cn2)CC1)Nc1cn[nH]c(=O)c1C(F)(F)F (stereo partly drawn) [Example 626, 5-(((2S)-1-(2-Hydroxy-3-(4-(5-(trifluoromethyl)pyrimidin-2-yl)piperazin-1-yl)propoxy)propan-2-yl)amino)-4-(trifluoromethyl)pyridazin-3(2H)-one]	< 100
O=C(CCOC[C@H](CO)Nc1cn[nH]c(=O)c1C(F)(F)F)N1CCN(c2ccc(Cl)cn2)CC1 [Example 633, (S)-5-((1-(3-(4-(5-Chloropyridin-2-yl)piperazin-1-yl)-3-oxopropoxy)-3-hydroxypropan-2-yl)amino)-4-(trifluoromethyl)pyridazin-3(2H)-one]	< 100
